Source: patent US12589099B2 (priority 2021, dated 2026)

Legend:
[1] = test system: moderate traumatic brain injury (TBI) induced by controlled cortical impact (CCI); test: Modified neurological severity score (mNSS) after TBI; type: in vivo, male Wistar rats
From the text: (§1) Young adult (2-3 months) male Wistar rats were subjected to a moderate traumatic brain injury (TBI) induced by controlled cortical impact (CCI). Animal models of TBI including the CCI model and functional tests have been described in detail in peer reviewed publications (Xiong et al., 2013, Nat Rev Neurosci.; Zhang et al., 2016, J Neurosurg.; Zhang et al., 2016, Neurochem Int.; Zhang et al., 2021, J Neurotrauma). Injury consisted of a single impact at 4.0 m/sec, 2.5 mm deformation to the left parietal cortex. In addition, a group of animals was left healthy/not injured to serve as a healthy control.
The animals were divided into 3 groups: • 1) TBI+Vehicle (purified water, n=10) • 2) TBI+ALPHA-1062 (4.5 mg/kg) (n=10) • 3) Healthy/not injured and not treated (Sham surgery) (n=10)
The substance used in this study was ALPHA-1062 at 4.5 mg/kg. As control treatment (vehicle) purified water was administered intranasally (IN). The ALPHA-1062 and the control treatment were initiated 2 hours after injury and continued twice daily (with a 6-hour interval) for 35 consecutive days.
In addition, neurological functional tests were performed by conducting footfault tests and observations to determine the modified neurological severity score (mNSS) at 1, 7, 14, 21, 28, 35 days after TBI (see Table 1). The mNSS is a composite score assessing motor, sensory, balance, and reflex functions. […]

[2] = test system: total Tau; test: Total Tau immunostaining 35 days post-TBI; type: in vivo, male Wistar rats; details: 4.5 mg/kg IN twice daily, cortex, DG, CA3, CA1 of ipsilateral hemisphere
From the text: as §1
The substance used in this study was ALPHA-1062 at 4.5 mg/kg. […]
Histological assessment was performed including quantitative image analysis protocols; followed by statistical analysis of the data. […]
For cell counting and quantitation NeuN+ cells were examined in the ipsilateral cortex, DG, CA1, and CA3 regions of the ipsilateral hippocampus. […] The number of BrdU+ cells (red-fluorophore) and NeuN (green-fluorophore)/BrdU-colabeled cells (yellow after merge) were counted. […] The immune-positive cells were determined and divided by the measured areas and presented as numbers per square mm. […] Tau or p-Tau immunoreactive areas including cortex, dentate gyrus, CA3 and CA1 regions of the ipsilateral hemisphere were imaged and quantified by Image J software (NIH).

SMILES: COc1ccc2c3c1O[C@H]1C[C@@H](OC(=O)c4ccccc4)C=C[C@@]31CCN(C)C2 [ALPHA-1062, (4aS,6R,8aS)-5,6,9,10,11,12-hexahydro-3-methoxy-11-methyl-4aH-[1]benzofuro[3a,3,2-ef][2]benzazepin-6-ol benzoate]
- mNSS performance ([1]; 4.5 mg/kg IN twice daily, from day 14 (D14) onwards, vs vehicle): statistically significantly better
- Modified Neurological Severity Score (mNSS), performance over VEHICLE ([1]; rats after TBI, compared to vehicle treatment): superior
- total Tau protein [2]: does not alter total Tau protein
